{"source": "ChEMBL document CHEMBL6074641", "about": "“Polypharmacological Drug Design Guided by Integrating Phenotypic and Restricted Fragment Docking Strategies” (J Med Chem, 2024)", "key": {"[1]": {"system": "BV-2", "test": "Anti-necroptosis activity in mouse BV-2 cells assessed as reduction in p65 expression at 100 nM by confocal microscopic analysis", "type": "functional, cell-based"}, "[2]": {"system": "Microglia", "test": "Anti-necroptosis activity in LPS/zVAD stimulated mouse primary microglia transfected with Myc-tagged ALK plasmid assessed as protection of microglia cells at 100 nM", "type": "functional, cell-based"}, "[3]": {"system": "Microglia", "test": "Anti-necroptosis activity in LPS/zVAD stimulated mouse primary microglia overexpressed with MAP4K4 assessed as reversal of mitochondrial swelling by TEM analysis", "type": "functional, cell-based"}, "[4]": {"molecular_target": "Cytochrome P450 2C19 (Homo sapiens, UniProt P33261)", "sequence (P33261 whole entry)": "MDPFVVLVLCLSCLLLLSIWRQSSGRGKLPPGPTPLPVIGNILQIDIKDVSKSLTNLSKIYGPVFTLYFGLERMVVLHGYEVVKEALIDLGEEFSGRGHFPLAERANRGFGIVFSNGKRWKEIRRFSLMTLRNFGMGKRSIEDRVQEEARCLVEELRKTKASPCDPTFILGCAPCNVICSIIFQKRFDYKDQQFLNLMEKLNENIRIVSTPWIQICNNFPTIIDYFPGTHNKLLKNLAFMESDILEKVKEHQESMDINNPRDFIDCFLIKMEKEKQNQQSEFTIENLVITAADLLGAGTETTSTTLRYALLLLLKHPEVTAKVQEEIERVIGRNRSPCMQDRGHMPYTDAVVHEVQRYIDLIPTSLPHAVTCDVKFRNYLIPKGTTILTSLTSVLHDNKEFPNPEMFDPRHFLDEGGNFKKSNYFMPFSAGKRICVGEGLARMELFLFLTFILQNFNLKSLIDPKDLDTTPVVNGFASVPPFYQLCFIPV", "test": "Inhibition of CYP2C19 (unknown origin) using S-mephenytoin as substrate incubated for 10 mins in presence of NADPH by LC-MS/MS analysis", "type": "ADME"}, "[5]": {"test": "Tmax in C57BL/6 mouse brain at 10 mg/kg, po measured upto 24 hrs by LC-MS/MS analysis", "type": "ADME, organism-based"}, "[6]": {"system": "Mus musculus", "test": "Downregulation of MAP4K4 phosphorylation in 3xTg mouse hippocampus at 2 to 10 mg/kg, po by immunohistochemistry analysis", "type": "functional, organism-based", "conditions": "dose 2-10 mg/kg"}, "[7]": {"system": "Mus musculus", "test": "Anti-alzheimer activity against 8 month old 3xTg mouse model assessed as increase in beta-III tubulin expression at 10 mg/kg, po", "type": "functional, organism-based"}}, "note": "The source made the active and inactive calls. The rule behind the calls is not given here."}
{"smiles": "Cc1cc(F)cc(Nc2ncc(Nc3ccc(SC(F)(F)F)cc3)cc2C(N)=O)c1", "values": [{"measurement": "Activity", "setting": "[1]", "value": "Active"}, {"measurement": "Activity", "setting": "[2]", "value": "inactive"}, {"measurement": "Activity", "setting": "[3]", "value": "inactive"}, {"measurement": "IC50", "setting": "[4]", "value": 8.3, "unit": "µM"}, {"measurement": "Tmax", "setting": "[5]", "value": 5.97, "unit": "h"}, {"measurement": "Activity", "setting": "[6]", "value": "Active; Activity More Potent Than Nec-1"}, {"measurement": "Activity", "setting": "[7]", "value": "Active"}]}
